ChEMBL document CHEMBL1152986, “The macrolide resistance genes erm(B) and mef(E) are carried by Tn2010 in dual-gene Streptococcus pneumoniae isolates belonging to clonal complex CC271” (2007)
≈ marks a conversion by molar mass, not a printed value.

Tested on: Streptococcus pneumoniae
Assay: Antibacterial activity against tetracycline-susceptible Streptococcus pneumoniae GMRS06 harboring one-nucleotide insertion stop codon in […] gene
Format: functional

CN(C)[C@@H]1C(O)=C(C(N)=O)C(=O)[C@@]2(O)C(O)=C3C(=O)c4c(O)cccc4[C@@](C)(O)[C@H]3C[C@@H]12 [TETRACYCLINE]
MIC: 0.25 µg/mL (≈ 0.563 µM)
